Measured values from ChEMBL document CHEMBL2396605 (Bioorg Med Chem Lett, 2013).

Columns and labels:
[1] = biological target: D-amino-acid oxidase (Homo sapiens, UniProt P14920); assay: Inhibition of human recombinant DAAO expressed in HEK293 cell lysate assessed as D-Serine conversion to H2O2 after 20 mins by spectrophotometric analysis; type: cell-free
[2] = biological target: D-amino-acid oxidase (Sus scrofa, UniProt P00371); assay: Inhibition of pig DAAO assessed as D-Serine conversion to H2O2 by spectrophotometric analysis
D-amino-acid oxidase (Sus scrofa, UniProt P00371), sequence (P00371 whole entry): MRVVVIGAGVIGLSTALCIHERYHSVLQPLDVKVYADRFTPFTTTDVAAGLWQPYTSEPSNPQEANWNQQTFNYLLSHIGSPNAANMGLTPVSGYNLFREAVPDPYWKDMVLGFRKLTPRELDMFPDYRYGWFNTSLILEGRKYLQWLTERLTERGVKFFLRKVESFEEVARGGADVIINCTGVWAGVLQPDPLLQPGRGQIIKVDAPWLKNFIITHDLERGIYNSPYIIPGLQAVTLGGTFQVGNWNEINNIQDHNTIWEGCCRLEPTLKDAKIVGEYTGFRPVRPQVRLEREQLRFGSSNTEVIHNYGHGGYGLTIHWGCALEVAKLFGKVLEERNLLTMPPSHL

D-amino-acid oxidase (Homo sapiens, UniProt P14920), sequence (P14920 whole entry): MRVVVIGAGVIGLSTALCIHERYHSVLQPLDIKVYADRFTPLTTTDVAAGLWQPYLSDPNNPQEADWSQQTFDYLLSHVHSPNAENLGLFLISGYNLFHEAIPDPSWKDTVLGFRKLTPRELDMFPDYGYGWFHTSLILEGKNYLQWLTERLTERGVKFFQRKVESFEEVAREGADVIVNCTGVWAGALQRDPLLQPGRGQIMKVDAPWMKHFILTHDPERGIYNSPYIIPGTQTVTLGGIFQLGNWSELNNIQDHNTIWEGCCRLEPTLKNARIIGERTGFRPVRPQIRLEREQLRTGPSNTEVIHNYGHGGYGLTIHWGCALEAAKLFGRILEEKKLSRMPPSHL

| SMILES | IC50 [1] | IC50 [2] |
| --- | --- | --- |
| O=c1ccn(CCc2ccccc2)cc1O | > 100000 nM | – |
| O=C(O)c1cc(CCc2ccccc2)[nH]n1 | – | < 1 µM |
| COCc1cc(=O)c(O)co1 | 50000 nM | – |
| O=c1cc(CSc2ccc(Cl)c(Cl)c2)occ1O | 100 nM | – |
| O=c1cc(CSc2ncccn2)occ1O | 4000 nM | – |
| O=c1cc(COC2CCCCO2)occ1O (stereo not drawn) | > 100000 nM | – |
| O=c1cc(COc2ccccc2)occ1O | 900 nM | – |
| CCOCc1cc(=O)c(O)co1 | > 100000 nM | – |
| O=c1cc(CSc2ccc(Cl)cc2)occ1O | 200 nM | – |
| O=c1cc(COc2ccc(F)cc2)occ1O | 800 nM | – |
| O=C(O)c1cc[nH]n1 | – | < 100 µM |
| O=c1cc(COc2ccc3ccccc3c2)occ1O | 800 nM | – |
| O=c1cc(COc2cccc3ccccc23)occ1O | 900 nM | – |
| O=C(O)c1ccc[nH]1 | – | < 10 µM |
| O=C(O)c1cc(CCc2ccccc2)c[nH]1 | – | < 1 µM |
| O=c1cc(CSc2ccccc2)occ1O | 200 nM | – |
| O=c1cc(COc2cccnc2)occ1O | 3000 nM | – |
| O=c1cc(COCc2ccccc2)occ1O | 20000 nM | – |
| COc1coc(CO)cc1=O | > 100000 nM | – |
| O=c1cc(CSc2ccc(F)cc2)occ1O | 300 nM | – |
| O=c1cc(CCc2ccccc2)occ1O | 500 nM | – |
| O=c1cc(COc2ccc(Cl)c(Cl)c2)occ1O | 500 nM | – |
| O=c1cc(COc2ccc(Cl)cc2)occ1O | 700 nM | – |
